According to patent publication US20210155644A1, “CYCLOPENTENYL PURINE DERIVATIVE OR SALT THEREOF” (Fujifilm Corporation, priority 2018, published 2021):
Read-outs that look alike come from different tables or passages of the source.

Tested on: adenovirus type 6 (ADV6)
Assay: Evaluation of anti-adenovirus activity: CRL-11516 cells infected with ADV6, anti-hexon staining, count of stained cells
Format: cell-based
Details: CRL-11516 cells infected with ADV6, 48 hours culture, concentration reducing dark brown-stained cells by 50%, read-out: Anti-AdV activity EC50
Method: A system in which CRL-11516 cells (available from ATCC) were infected with adenovirus type 6 (hereinafter, referred to as ADV6) was constructed, and a test for evaluating the anti-adenovirus activity of the compound according to the embodiment of the present invention and the compound of Comparative Example was carried out using the system. The test for evaluating the anti-adenovirus activity was carried out according to the method described below.
CRL-11516 cells were added to a 96-well plate at a cell density of 1×10^4 cells/well and cultured at 37° C. for 24 hours. After the culture was completed, the cell culture liquid was removed, and a serial dilution (100 μL) of the compound according to the embodiment of the present invention or the compound of Comparative Example was added. ADV6 (corresponding to 50TCID50) was added thereto, followed by culturing at 37° C. for 48 hours.
After the culture was completed, the infected cells were stained using Adeno-X Rapid Titer Kit (manufactured by Takara Bio Inc.). 100% methanol was added thereto and the cells were fixed at −20° C. for 10 minutes. The plate was washed three times with phosphate buffered saline (hereinafter, referred to as PBS) and then Mouse Anti-Hexon Antibody was added thereto, followed by incubation at 37° C. for 1 hour. After the incubation was completed, the plate was washed three times with PBS, and Rat Anti-Mouse Antibody was added thereto, followed by incubation at 37° C. for 1 hour. After the incubation was completed, a mixed staining solution of Stable Peroxidase Buffer:DAB Substrate=10:1 was added thereto, followed by incubation at room temperature for 10 minutes for staining of the cells.
The number of dark brown-stained cells was counted under a microscope, and the concentration of the test drug that reduces the dark brown-stained cells by 50% was defined as EC50. EC50 values were calculated for the triplicate test results, and a mean value and a standard deviation thereof were determined.

Row | Molecule | EC50 (Human mastadenovirus C, 48 h) [µM] | also measured
1 | CCOc1nc(N)nc2c1ncn2[C@H]1C=C[C@@H](CO[P@](=O)(N[C@@H](C)C(=O)OC(C)C)Oc2ccccc2)C1 [Example 2-2-17, isopropyl ((R)-(((1S,4R)-4-(2-amino-6-ethoxy-9H-purin-9-yl)cyclopent-2-en-1-yl)methoxy)(phenoxy)phosphoryl)-L-alaninate] | < 0.01 | 
2 | CC(C)OC(=O)[C@H](C)NP(=O)(OC[C@@H]1C=C[C@H](n2cnc3c(Cl)nc(N)nc32)C1)Oc1ccccc1 (stereo partly drawn) [Example 4-3-2, Isopropyl ((((1 S,4R)-4-(2-amino-6-chloro-9H-purin-9-yl)cyclopent-2-en-1-yl)methoxy)(phenoxy)phosphoryl)-L-alaninate] |  | EC50: 0.1 to 1 µM
3 | CC(C)OC(=O)[C@H](C)N[P@](=O)(OC[C@@H]1C=C[C@H](n2cnc3c(OC4CCC4)nc(N)nc32)C1)Oc1ccccc1 [Example 2-2-36, Isopropyl ((S)-(((1S,4R)-4-(2-amino-6-cyclobutoxy-9H-purin-9-yl)cyclopent-2-en-1-yl)methoxy)(phenoxy)phosphoryl)-L-alaninate] | 0.1 to 1 | 
4 | COc1nc(N)nc2c1ncn2[C@H]1C=C[C@@H](COP(=O)(N[C@@H](C)C(=O)OC(C)C)OCCSC(=O)C(C)(C)C)C1 (stereo partly drawn) [Example 1-2-74, isopropyl ((((1S,4R)-4-(2-amino-6-methoxy-9H-purin-9-yl)cyclopent-2-en-1-yl)methoxy)(2-(pivaloylthio)ethoxy)phosphoryl)-L-alaninate] |  | EC50 (Human mastadenovirus C): 0.01 to 0.1 µM
5 | Isopropyl ((((1S,4R)-4-(2-amino-6-methoxy- 9H-purin-9-yl)cyclopent-2-en-1- yl)methoxy)(naphthalen-1-yloxy) phosphoryl)-L-alaninate [Example 6-2-26] |  | EC50: 0.01 to 0.1 µM
6 | COC(=O)[C@H](C)NP(=O)(OC[C@@H]1C=C[C@H](n2cnc3c(NC4CC4)nc(N)nc32)C1)Oc1ccccc1 (stereo partly drawn) [Example 2-2-3, Methyl ((((1S,4R)-4-(2-amino-6-(cyclopropyl-amino)-9H-purin-9-yl)cyclopent-2-en-1-yl)methoxy) (phenoxy)phosphoryl)-L-alaninate] | 0.01 to 0.1 | 
7 | COc1nc(N)nc2c1ncn2[C@H]1C=C[C@@H](COP(=O)(N[C@@H](C)C(=O)OC(C)C)Oc2ccc(Cl)cc2)C1 (stereo partly drawn) [Example 1-2-72, isopropyl ((((1S,4R)-4-(2-amino-6-methoxy-9H-purin-9-yl)cyclopent-2-en-1-yl)methoxy)(4-chlorophenoxy)phosphoryl)-L-alaninate] | 0.01 to 0.1 | 
8 | COC(=O)[C@H](C)NP(=O)(OC[C@@H]1C=C[C@H](n2cnc3c(Cl)nc(N)nc32)C1)Oc1ccc(Cl)cc1 (stereo partly drawn) [Example 4-5-1, methyl ((((1 S,4R)-4-(2-amino-6-chloro-9H-purin-9-yl)cyclopent-2-en-1-yl)methoxy)(4-chlorophenoxy)phosphoryl)-L-alaninate] | < 0.01 | 
